The values that follow are results of earlier work, collected in patent US20100209363A1, “PERSONAL CLEANSING COMPOSITION INCLUDING A STRUCTURED SURFACTANT SYSTEM AND A SUN PROTECTION FACTOR COMPOSITION” (The Dial Corporation, priority 2009, published 2010).

For the data set the following is noted: in capric triglyceride.

For the compound `COc1ccc(C(=O)CC(=O)c2ccc(C(C)(C)C)cc2)cc1` [avobenzone, 4-tert-butyl-4′-methoxydibenzoylmethane], the “concentration up to which miscible with capric triglyceride” value was “up to 16 wt. %” and the “miscibility with capric triglyceride” value is “miscible”. `CCCCC(CC)COC(=O)C(C#N)=C(c1ccccc1)c1ccccc1` (stereo not drawn) [octocrylene, 2-ethylhexyl 2-cyano-3,3-diphenylacrylate]: the “miscibility with capric triglyceride” value was “miscible”.
